Measurements taken from patent publication US20240299339A1, “COMPOSITION FOR SUPPRESSING MUSCLE DAMAGE” (OTSUKA PHARMACEUTICAL CO., LTD., priority 2021, published 2024).

Experiment: Verification of function of KMP using 400-m run: blood markers in healthy subjects
Format: in vivo, human
Details: 16 healthy subjects (20 to 22 years old); single dose of capsule food containing 10 mg of KMP, 3 h before two 400-m full-speed runs 90 min apart; vs placebo
Method: According to usual methods, blood samples were taken, and the concentration of each blood marker was measured. […] It is known that blood myoglobin is detected with muscle fiber damage and that its concentration increases with muscle fiber damage (J. Appl. Physiol. 83 (4): 1076-1082, 1997).
The capsule foods used in the test were prepared according to the following procedures. Quinoa grains were extracted twice with 50% aqueous ethanol at 70° C., followed by concentration under reduced pressure. To a solution obtained by purifying the resultant with resin, Aromase H2 (produced by Amano Enzyme, Inc.) was added, and the enzyme was allowed to act (conversion into aglycone) while stirring at 50° C. The resulting reaction liquid was heated to 100° C. and maintained for 15 minutes to inactivate the enzyme. Thereafter, the treated liquid was freeze-dried to give an ethanol extraction powder. To the powder, starch was added in an amount equal to the amount of the powder (on a weight basis), followed by mixing. Capsules were filled with the resulting mixture in an amount of 116 mg (including 2.5 mg of kaempferol) per capsule. The subjects ingested four capsules (10 mg of kaempferol in total) at one time. The food used as the placebo was obtained by filling capsules with only starch.

## O=c1c(O)c(-c2ccc(O)cc2)oc2cc(O)cc(O)c12 [KMP, Kaempferol]
  blood myoglobin level after running at full speed: significantly lower
